Here are results for ten molecules from ChEMBL document CHEMBL1201862, “PubChem BioAssay data set” (2004).

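48-hour exposure; five concentrations; linearly interpolated endpoints. The concentration for 50% growth inhibition is given as GI50.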 Active and inactive are the calls of the source. Rule as the data show it: active = GI50 up to about 1.1 µM and inactive = higher. Where only a bound is given, the exact number is not on record here.

Some test systems named below: HCC 2998; UO-31; RXF 393; A498; SW-620; CCRF-CEM; SF-268; SK-OV-3; SF-295; KM12; HOP-62; NCI-H522; SNB-19; UACC-257; SF-539; U-251; EKVX; MOLT-4; SNB-75; SK-MEL-28.
Assay in all cases: NCI anticancer screen, dose series, 48 h

As to `C=C1C(=O)OC2C=C(C)CC3C=C(CCC=C(C)CCC12)C(=O)O3` (configuration not stated), the GI50 was 58.7 µM (inactive) in the experiment with HCC 2998; 105 µM (inactive) in the experiment on UO-31; 31.3 µM (inactive) with RXF 393; 73.1 µM (inactive) in the experiment with A498; 31 µM (inactive) in the experiment with SW-620; 16.5 µM (inactive) in the experiment with CCRF-CEM. Also, the GI50 in the experiment with SF-268 is 61.8 µM (inactive); in the experiment on SK-OV-3, 121 µM (inactive); in the experiment on SF-295, 79.4 µM (inactive); in the experiment with KM12, 52.7 µM (inactive); in the experiment on HOP-62, 114 µM (inactive); with NCI-H522, 17.3 µM (inactive). Further, the GI50 in the experiment with SNB-19 was 122 µM (inactive); in the experiment with UACC-257 it was 43.1 µM (inactive); with SF-539, 84.5 µM (inactive); in the experiment on U-251, 65 µM (inactive); in the experiment on EKVX, 62.4 µM (inactive); in the experiment on MOLT-4, 54 µM (inactive). For the same molecule, the GI50 is 92.5 µM (inactive) in the experiment on SNB-75 and 58.1 µM (inactive) with SK-MEL-28.

In the case of `CO[C@H]1ON=C(c2c(C)cc(C)cc2C)[C@@H]1C1(c2ccccc2)ON=C(c2c(C)cc(C)cc2C)O1` (some centres not stated), the GI50 in the experiment on HCC 2998, with UO-31, in the experiment on RXF 393, with SW-620, with CCRF-CEM and in the experiment with SF-268 was > 100 µM (inactive) throughout. The GI50 in the experiment with SK-OV-3, in the experiment with SF-295, in the experiment on KM12, with NCI-H522, in the experiment with SNB-19 and with UACC-257 was > 100 µM (inactive) throughout. The GI50 with SF-539 is > 100 µM (inactive); in the experiment on U-251, > 100 µM (inactive); in the experiment with EKVX, > 100 µM (inactive); in the experiment on MOLT-4 it was 87.1 µM (inactive); in the experiment on SK-MEL-28, > 100 µM (inactive).

Regarding `CC(=O)O[C@@H]1CN(S(=O)(=O)c2ccc(C)cc2)C[C@@H]1C1CCCCC1`, the GI50 is 42.5 µM (inactive) with HCC 2998; 31 µM (inactive) in the experiment on UO-31; 20 µM (inactive) in the experiment with A498; 20.4 µM (inactive) with SW-620; 37.8 µM (inactive) with CCRF-CEM; 16.8 µM (inactive) with SF-268. Also, the GI50 is 62.2 µM (inactive) in the experiment on SK-OV-3; 37.9 µM (inactive) in the experiment with SF-295; 16.1 µM (inactive) in the experiment on KM12; 21.9 µM (inactive) in the experiment on HOP-62; 54.8 µM (inactive) with SNB-19; 15.4 µM (inactive) with UACC-257. The GI50 is < 0.01 µM (active) with SF-539; 17.7 µM (inactive) in the experiment with U-251; 19.9 µM (inactive) with EKVX; 25.5 µM (inactive) in the experiment with MOLT-4; 19.8 µM (inactive) in the experiment with SNB-75; 14.5 µM (inactive) in the experiment on SK-MEL-28.

Turning to `C=CCNC(=O)CN(CC(=O)OC)C1CCCCC1N(CC(=O)OC)CC(=O)OC` (configuration not stated), the GI50 with HCC 2998 was 70 µM (inactive); in the experiment with UO-31, > 100 µM (inactive); with RXF 393, > 100 µM (inactive); with A498, > 100 µM (inactive); with SW-620, > 100 µM (inactive); in the experiment on CCRF-CEM, > 100 µM (inactive). Besides, the GI50 with SF-268, with SK-OV-3, with SF-295, in the experiment on KM12, with HOP-62 and in the experiment on NCI-H522 was > 100 µM (inactive) throughout. Further, the GI50 in the experiment on SNB-19, with UACC-257, with SF-539, with U-251, with EKVX and in the experiment with MOLT-4 was > 100 µM (inactive) each time. In addition, the GI50 in the experiment with SK-MEL-28 was > 100 µM (inactive).

In the case of `O=C1C(Cl)N(c2ccccc2Cl)C1c1c[nH]c2ccccc12` (configuration not stated), the GI50 in the experiment on UO-31, with RXF 393, in the experiment on SW-620, in the experiment with CCRF-CEM, in the experiment with SF-268 and in the experiment on SK-OV-3 was > 100 µM (inactive) in each case. For the same molecule, the GI50 with SF-295, with KM12, in the experiment with HOP-62, with NCI-H522, with SNB-19 and in the experiment with UACC-257 was > 100 µM (inactive) throughout. Also, the GI50 was > 100 µM (inactive) in the experiment with SF-539; > 100 µM (inactive) in the experiment with U-251; > 100 µM (inactive) with EKVX; > 100 µM (inactive) in the experiment with MOLT-4; 86.9 µM (inactive) in the experiment with SNB-75; > 100 µM (inactive) with SK-MEL-28.

Take `CNC(=O)N(C)COC`: the GI50 with HCC 2998, in the experiment on UO-31, with A498, with SW-620, in the experiment on CCRF-CEM and with SF-268 was > 100 µM (inactive) each time. The GI50 with SK-OV-3, with SF-295, in the experiment with KM12, with HOP-62, with NCI-H522 and in the experiment on SNB-19 was > 100 µM (inactive) in each case. The GI50 with UACC-257, with SF-539, in the experiment on U-251, in the experiment on EKVX, in the experiment on MOLT-4 and in the experiment with SNB-75 was > 100 µM (inactive) throughout. In the experiment with SK-MEL-28, the GI50 was > 100 µM (inactive).

For the molecule `C#CC[N+](CCO)(CCO)CCCCCCCCCCCCCCCCCC`, the GI50 with HCC 2998 is 11.5 µM (inactive); in the experiment on UO-31 it was 15.1 µM (inactive); in the experiment on RXF 393, 2.48 µM (inactive); in the experiment with A498, 17.2 µM (inactive); with SW-620, 15.7 µM (inactive); in the experiment on CCRF-CEM it was 2.03 µM (inactive). For the same molecule, the GI50 was 8.69 µM (inactive) in the experiment with SF-268; 17.6 µM (inactive) in the experiment with SK-OV-3; 7.76 µM (inactive) in the experiment with SF-295; 3.55 µM (inactive) in the experiment on KM12; 11.4 µM (inactive) with HOP-62; 6.85 µM (inactive) with NCI-H522. The GI50 is 5.92 µM (inactive) with SNB-19; 15.8 µM (inactive) in the experiment on UACC-257; 11.4 µM (inactive) with SF-539; 6.47 µM (inactive) in the experiment on U-251; 21.7 µM (inactive) in the experiment on EKVX; 2.91 µM (inactive) in the experiment on MOLT-4. Moreover, the GI50 in the experiment with SNB-75 was 4.16 µM (inactive); in the experiment with SK-MEL-28, 16.5 µM (inactive).

`Cc1cn(Cc2cn(CC3OC(n4cc(C)c(=O)[nH]c4=O)CC3O)nn2)c(=O)[nH]c1=O` (configuration not stated): the GI50 in the experiment on HCC 2998, with UO-31, with RXF 393, in the experiment with A498, with SW-620 and in the experiment on CCRF-CEM was > 100 µM (inactive) in each case. Besides, the GI50 with SF-268, in the experiment on SK-OV-3, in the experiment on SF-295, in the experiment with KM12, in the experiment with HOP-62 and with SNB-19 was > 100 µM (inactive) throughout. The GI50 in the experiment with UACC-257, in the experiment with SF-539, in the experiment on U-251, with EKVX, in the experiment on MOLT-4 and in the experiment on SNB-75 was > 100 µM (inactive) each time. The GI50 in the experiment with SK-MEL-28 was > 100 µM (inactive).

As to `Cn1c(=O)c2nc(N3CCCCC3)cnc2n(C)c1=O`, the GI50 in the experiment with HCC 2998, in the experiment with UO-31, in the experiment on A498, with SW-620, in the experiment on CCRF-CEM and in the experiment with SF-268 was > 100 µM (inactive) throughout. The GI50 in the experiment with SK-OV-3, with SF-295, in the experiment with KM12, in the experiment on HOP-62, in the experiment on NCI-H522 and in the experiment with SNB-19 was > 100 µM (inactive) each time. Moreover, the GI50 in the experiment with UACC-257, in the experiment with SF-539, in the experiment on U-251, with EKVX, in the experiment with MOLT-4 and with SNB-75 was > 100 µM (inactive) throughout. The GI50 with SK-MEL-28 is > 100 µM (inactive).

For the molecule `C=C(/C=C/C=C(\C)CCC=C(C)C)[C@@H]1CC[C@]2([C@H](CCCO)/C(=C(/C)C=O)CC[C@]2(C)O)[C@@H]1O`, the GI50 with HCC 2998 is 20.9 µM (inactive); in the experiment with UO-31, 19.5 µM (inactive); in the experiment with RXF 393, 22.6 µM (inactive); in the experiment with SW-620 it was 16.3 µM (inactive); in the experiment on CCRF-CEM, 15.8 µM (inactive); in the experiment on SF-268, 19.2 µM (inactive). In addition, the GI50 in the experiment with SK-OV-3 was > 100 µM (inactive); in the experiment on SF-295, 15.6 µM (inactive); in the experiment on KM12, 1.41 µM (inactive); in the experiment with NCI-H522, 16.7 µM (inactive); in the experiment on SNB-19, 22.2 µM (inactive); in the experiment with UACC-257 it was 22.6 µM (inactive). The GI50 with SF-539 was 12.6 µM (inactive); with U-251, 14.9 µM (inactive); in the experiment with EKVX, 22.4 µM (inactive); with MOLT-4, 7.62 µM (inactive); in the experiment with SNB-75 it was 91.6 µM (inactive); with SK-MEL-28, 15.1 µM (inactive).
